Data as given in patent EP4311545A1, “COMPOUNDS USEFUL FOR THE POST-STING TREATMENT FROM A CNIDARIAN ORGANISM” (Isdin, S. A., priority 2022, dated 2024).

Test system: P. noctiluca
Assay: Tentacle Skin Blood Agarose Assay (TSBAA): venom load after natural stimulation of nematocyst discharge
Assay type: cell-based
Details: for discharge of nematocysts: summary of the results of Examples 1 and 2
Experimental: Example 2: Natural stimulation of nematocyst discharge. Tentacle Skin Blood Agarose Assay (TSBAA).
Briefly, an agarose gel preparation incorporating sheep red blood cells (SRBCs) (Thermo Fisher Scientific) was used covered by a thin tissue of pig intestine to simulate the effect of the human skin barrier.
A solution of 4% low melting point agarose (INVITROGEN ™ LMP Agarose) in phosphate buffered saline (PBS) (SIGMA) was prepared and cooled to room temperature for a few minutes. The SRBCs were centrifuged and resuspended in PBS until a final concentration of 2% was obtained. Equal volumes of both preparations were mixed and poured onto a glass surface with a mold (18x7.5 cm) and allowed to cool to room temperature. Once the agarose with SRBCs was set, rectangles were cut and placed on slides and kept at 4 °C in a humidification chamber (maximum 72 hours until use).
Pig small intestine tissue was washed in a 50 mM saline solution and then cut in rectangular sections. […] The next day, the sections were stretched on a glass surface and allowed to dry for a few minutes in the open air. The pretreated sections of the pig small intestine were placed on the SRBC agarose rectangles
Cutting tentacles of the same size is a complicated process due to the contraction and expansion of the tentacles after their manipulation. In order to control the sting area, we design plastic molds obtained through a 3D printer.
Tentacle pieces of approximately 3 cm long were incubated on reductor or inhibitory solutions (Method 3) for 5 minutes. Consecutively, the agarose rectangles were stung by a sting diameter of 57,35 mm^2 for 1 minute. A weight of 0,66 g was applied to ensure the contact between the tentacle and the skin. After the sting process, the plastic molds and the intestine sections were removed and the SRBC's agarose rectangles were stored in the humidification chamber at room temperature. After a period of 22 hours, images of the hemolytic areas were obtained with a camera. Hemolytic areas were calculated using the Fiji version of ImageJ software (J. Schindelin et al., Fiji: an open-source platform for biological-image analysis. Nature methods, 2012, vol. 9, pp. 676-682). Table 2. Inhibitory efficacy on the venom load to P. noctiluca.

Row | SMILES | discharge of nematocysts | Venom load - Hemolytic area (%) (tentacles incubated 5 minutes in solution, sting 1 minute on SRBC agarose covered with pig intestine, read after 22 hours) | % Inhibitory ({})
1 | O=C(CO)c1ccccc1 [HAP, hydroxy acetophenone] | significantly reduces | – | –
2 | CC(O)CCO (stereo not shown) [100% Butylene glycol, Butylene glycol] | – | 26.54 ± 19.66% | 56.33%
3 | CC(C)(C)C1CCC(O)CC1 (stereo not shown) [4-tert-butyl cyclohexanol] | significantly reduces | – | –
